# Laboratory results: patent US20130045952A1, “ABA Receptor Agonists for Increased Plant Stress Resistance” (Van Andel Research Institute, priority 2011, published 2013)
# How the values were obtained:
# Assay type in all cases: biochemical
# [1] = target: T1, His6-PYL3 / biotin-PP2C (Arabidopsis thaliana, UniProt Q9SSM7); test: AlphaScreen luminescence proximity assay, PYL3-PP2C interaction; details: 100 nM His6-PYL3, 100 nM biotin-PP2C, 100 μM agonist; normalized against a pyrabactin control
# T1 construct: made in house; host or cells: not expressly stated for PYL3
# T1 sequence (Q9SSM7 1-209): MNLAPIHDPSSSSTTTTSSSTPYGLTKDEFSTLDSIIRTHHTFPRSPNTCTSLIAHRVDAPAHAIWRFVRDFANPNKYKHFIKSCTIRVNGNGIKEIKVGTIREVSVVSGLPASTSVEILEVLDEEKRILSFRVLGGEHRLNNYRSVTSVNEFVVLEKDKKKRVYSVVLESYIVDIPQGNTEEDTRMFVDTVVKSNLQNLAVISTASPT
# Procedure: (§1) Mutant proteins were expressed as H6GST-fusion proteins and purified by glutathione sepharose chromatography. Protein-protein interactions were determined by luminescence proximity AlphaScreen assay. Biotinylated PP2C proteins for the luminescence proximity assay were generated by in vivo biotinylation of avitag-PP2C fusion proteins. PP2C phosphatase activity was measured by phosphate release from a SnRK2.6 phosphoprotein.
# (§2) Interactions between PYR/PYL and PP2Cs were assessed by luminescence-proximity AlphaScreen technology (Perkin Elmer). Briefly, biotinylated PP2Cs were attached to streptavidin-coated donor beads, and H6-tagged PYR/PYL receptors were attached to nickel-chelated acceptor beads. The donor and acceptor beads were brought into proximity by the interactions between PYR/PYLs and PP2Cs, which were measured with and without ligands. When excited by a laser beam of 680 nm, the donor beam emits singlet oxygen that activates thioxene derivatives in the acceptor beads, which releases photons of 520-620 nm as the binding signal. The experiments were conducted with 100 nM of PP2Cs and PYR/PYL proteins in the presence of 5 ug/ml donor and acceptor beads in a buffer of 50 mM MOPS, pH7.4, 50 mM NaF, […], and 0.1 mg/ml bovine serum albumin. The results were based on an average of three experiments with standard errors typically less than 10% of the measurements.
# (§3) Values were determined in different experiments and normalized against a pyrabactin control. Blank spaces mean no experimental data is available. Key (photon counts (binding signal units) in Alphascreen luminescence proximity assay): “+++ is >75,000; ++ is 25,000−75,000; + is <25,000.
# [2] = target: T2, HAB1 (Arabidopsis thaliana, UniProt O49686+Q9CAJ0); test: PP2C phosphatase activity assay, HAB1; details: 200 nM PP2C; SnRK2.6 phosphopeptide substrate; None = 100
# T2 construct: HAB1 (residues 172-511) were prepared as recombinant proteins in E. coli; H6GST or H6Sumo; made in house; host or cells: E. coli
# T2 sequence (Q9CAJ0 172-511 limits assumed): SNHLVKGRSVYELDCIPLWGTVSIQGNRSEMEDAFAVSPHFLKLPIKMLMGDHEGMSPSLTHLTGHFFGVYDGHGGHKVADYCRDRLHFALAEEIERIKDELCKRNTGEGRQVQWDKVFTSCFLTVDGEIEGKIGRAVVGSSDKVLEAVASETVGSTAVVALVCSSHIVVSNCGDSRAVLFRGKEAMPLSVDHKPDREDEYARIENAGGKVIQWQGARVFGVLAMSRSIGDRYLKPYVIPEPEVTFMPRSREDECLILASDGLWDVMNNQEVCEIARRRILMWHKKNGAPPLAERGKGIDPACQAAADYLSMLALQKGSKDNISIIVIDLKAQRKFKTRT
# T2 sequence (O49686 1-191): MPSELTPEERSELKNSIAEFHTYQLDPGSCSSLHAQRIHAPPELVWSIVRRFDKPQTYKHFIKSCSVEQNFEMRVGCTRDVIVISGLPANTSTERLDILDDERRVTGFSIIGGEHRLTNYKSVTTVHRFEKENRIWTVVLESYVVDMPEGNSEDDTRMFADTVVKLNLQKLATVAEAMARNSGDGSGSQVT
# Procedure: as §1
# (§4) PP2Cs and PYR/PYL proteins were pre-incubated at the indicated concentrations in 50 mM imidazole, pH 7.2, 5 mM MgCl2, 0.1% β-mercaptoethanol and 0.5 mg/ml BSA for 30 min at room temperature. Reactions were started by addition of 100 μM of a phosphopeptide corresponding to amino acids 170-180 of SnRK2.6 (HSQPK^pSTVGTP). This peptide is phosphorylated at a single residue corresponding to Ser175 in SnRK2.6, whose phosphorylation is required for SnRK2.6 kinase activity^32. Phosphate release from ^pS175 from the phosphopeptide was determined by colorimetric assay (BioVision).
# [3] = target: T3, His6-PYR1 / biotin-ABI2 (Arabidopsis thaliana, UniProt O49686); test: AlphaScreen dose response, PYR1-ABI2 interaction; details: 100 nM His6-PYR1, 100 nM biotin-PP2C, 0-100 μM agonist; from dose response curves
# T3 construct: made in house; host or cells: E. coli (stated for the PP2Cs; not expressly for PYR1)
# T3 sequence (O49686 1-191): T2 sequence (O49686 1-191)
# T3 sequence (O04719 101-423 partner limits assumed): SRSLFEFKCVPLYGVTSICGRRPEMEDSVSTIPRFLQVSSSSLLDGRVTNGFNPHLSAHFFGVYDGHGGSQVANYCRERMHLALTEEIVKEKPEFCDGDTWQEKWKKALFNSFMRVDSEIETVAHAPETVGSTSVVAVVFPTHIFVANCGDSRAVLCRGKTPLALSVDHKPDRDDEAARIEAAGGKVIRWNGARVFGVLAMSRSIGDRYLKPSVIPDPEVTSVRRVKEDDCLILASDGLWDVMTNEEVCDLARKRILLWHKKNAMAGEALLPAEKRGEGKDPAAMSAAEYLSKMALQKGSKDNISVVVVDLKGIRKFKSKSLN
# Procedure: as §2
# (§5) The results shown in Table 5b were calculated from the dose response curves of the dependence of the interaction between 100 nM His6-PYR1 and 100 nM biotin-PP2C on the presence of 0-100 μM agonists determined by AlphaScreen luminescence proximity assay. Key (EC50 in μM): ++++=<5.0 μM; +++=5-10 μM; ++=10-20 μM; and +=>20-60 μM.
# [4] = target: T4, His6-PYR1 / biotin-PP2C (Arabidopsis thaliana, UniProt O49686); test: AlphaScreen luminescence proximity assay, PYR1-PP2C interaction; details: 100 nM His6-PYR1, 100 nM biotin-PP2C, 100 μM agonist; normalized against a pyrabactin control
# T4 construct: made in house; host or cells: E. coli is stated for PYL1, PYL2 and the PP2Cs, not expressly for PYR1
# T4 sequence (O49686 1-191): T2 sequence (O49686 1-191)
# Procedure: as §1, §2, §3
# [5] = target: T5, His6-PYR1 / biotin-ABI1 (Arabidopsis thaliana, UniProt O49686); test: AlphaScreen dose response, PYR1-ABI1 interaction; details: 100 nM His6-PYR1, 100 nM biotin-PP2C, 0-100 μM agonist; from dose response curves
# T5 construct: made in house; host or cells: E. coli (stated for the PP2Cs; not expressly for PYR1)
# T5 sequence (O49686 1-191): T2 sequence (O49686 1-191)
# T5 sequence (P49597 117-434 partner limits assumed): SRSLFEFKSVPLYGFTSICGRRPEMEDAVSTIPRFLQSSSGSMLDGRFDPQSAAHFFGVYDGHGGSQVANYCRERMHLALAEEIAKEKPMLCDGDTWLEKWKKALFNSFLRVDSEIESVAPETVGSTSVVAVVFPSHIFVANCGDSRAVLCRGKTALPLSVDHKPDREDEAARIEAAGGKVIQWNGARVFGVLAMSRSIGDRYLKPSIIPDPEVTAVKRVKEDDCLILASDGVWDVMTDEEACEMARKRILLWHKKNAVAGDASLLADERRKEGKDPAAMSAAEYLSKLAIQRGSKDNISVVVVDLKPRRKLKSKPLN
# Procedure: as §2, §5
# [6] = target: T6, ABI2 (Arabidopsis thaliana, UniProt O04719+O49686); test: PP2C phosphatase activity assay, ABI2; details: 200 nM PP2C; SnRK2.6 phosphopeptide substrate; None = 100
# T6 construct: ABI1 (residues 117-434) and ABI2 (residues 101-423) were expressed as H6Sumo fusion proteins; H6Sumo (N); made in house; host or cells: E. coli BL21
# T6 sequence (O04719 101-423 limits assumed): T3 sequence (O04719 101-423 partner limits assumed)
# T6 sequence (O49686 1-191): T2 sequence (O49686 1-191)
# Procedure: as §1, §4
# [7] = target: T7, ABI1 (Arabidopsis thaliana, UniProt O49686+P49597); test: PP2C phosphatase activity assay, ABI1; details: 200 nM PP2C; SnRK2.6 phosphopeptide substrate; None = 100
# T7 construct: ABI1 (residues 117-434) and ABI2 (residues 101-423) were expressed as H6Sumo fusion proteins; H6Sumo (N); made in house; host or cells: E. coli BL21
# T7 sequence (P49597 117-434 limits assumed): T5 sequence (P49597 117-434 partner limits assumed)
# T7 sequence (O49686 1-191): T2 sequence (O49686 1-191)
# Procedure: as §1, §4
# [8] = target: T8, His6-PYR1 / biotin-HAB1 (Arabidopsis thaliana, UniProt O49686); test: AlphaScreen dose response, PYR1-HAB1 interaction; details: 100 nM His6-PYR1, 100 nM biotin-PP2C, 0-100 μM agonist; from dose response curves
# T8 construct: made in house; host or cells: E. coli (stated for the PP2Cs; not expressly for PYR1)
# T8 sequence (O49686 1-191): T2 sequence (O49686 1-191)
# T8 sequence (Q9CAJ0 172-511 partner limits assumed): T2 sequence (Q9CAJ0 172-511 limits assumed)
# Procedure: as §2, §5
# [9] = target: T9, His6-PYL2 / biotin-PP2C (Arabidopsis thaliana, UniProt O80992); test: AlphaScreen luminescence proximity assay, PYL2-PP2C interaction; details: 100 nM His6-PYL2, 100 nM biotin-PP2C, 100 μM agonist; normalized against a pyrabactin control
# T9 construct: PYL2 (residues 14-188), and HAB1 (residues 172-511) were prepared as recombinant proteins in E. coli; made in house; host or cells: E. coli
# T9 sequence (O80992 14-188): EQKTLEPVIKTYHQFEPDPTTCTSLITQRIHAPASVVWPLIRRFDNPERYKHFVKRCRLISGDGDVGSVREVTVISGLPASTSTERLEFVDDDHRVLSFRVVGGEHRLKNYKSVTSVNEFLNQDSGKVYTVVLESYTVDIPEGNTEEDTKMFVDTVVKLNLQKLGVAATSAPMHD
# Procedure: as §1, §2, §3
# [10] = target: T10, His6-PYL1 / biotin-PP2C (Arabidopsis thaliana, UniProt Q8VZS8); test: AlphaScreen luminescence proximity assay, PYL1-PP2C interaction; details: 100 nM His6-PYL1, 100 nM biotin-PP2C, 100 μM agonist; normalized against a pyrabactin control
# T10 construct: PYL1 (residues 36-211), PYL2 (residues 14-188), and HAB1 (residues 172-511) were prepared as recombinant proteins in E. coli; made in house; host or cells: E. coli
# T10 sequence (Q8VZS8 36-211): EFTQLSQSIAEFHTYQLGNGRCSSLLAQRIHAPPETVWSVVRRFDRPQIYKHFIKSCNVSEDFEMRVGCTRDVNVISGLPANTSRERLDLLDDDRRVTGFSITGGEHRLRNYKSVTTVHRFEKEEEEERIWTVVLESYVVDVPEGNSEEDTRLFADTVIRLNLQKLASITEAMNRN
# Procedure: as §1, §2, §3
Compound,Stimulation of the interaction between PYL3 and PP2C (binding signal) [1],% Phosphatase Activity HAB1 [2] [%],EC50 [3] [µM],Stimulation of the interaction between PYR1 and PP2C (binding signal) [4],EC50 [5] [µM],% Phosphatase Activity ABI2 [6] [%],% Phosphatase Activity ABI1 [7] [%],EC50 [8] [µM],Stimulation of the interaction between PYL2 and PP2C (binding signal) [9],Stimulation of the interaction between PYL1 and PP2C (binding signal) [10]
CSCCCC(NS(=O)(=O)c1ccc(Br)c2ccccc12)C(=O)O (stereo not shown) [Compound 3],"+++ (+++ is >75,000)",17.5 ± 0.6,< 5,"++ (++ is 25,000−75,000)",< 5,7.0 ± 0.3,7.7 ± 4.3,< 5,"+ (+ is <25,000)",
O=S(=O)(NCc1ccccn1)c1ccc2ccccc2c1 [Compound 4],"+ (+ is <25,000)",,,"+++ (+++ is >75,000)",,,,,,
CCOC(=O)C1OC(NC(=O)CSc2nnc(-c3ccccc3OCC)o2)C(C#N)C1C (stereo not shown) [Compound 5],"+ (+ is <25,000)",,,"+ (+ is <25,000)",,,,,"++ (++ is 25,000−75,000)","+ (+ is <25,000)"
O=C(CNS(=O)(=O)c1ccccc1)OCc1ccc(Cl)c(Cl)c1 [Compound 6],"++ (++ is 25,000−75,000)",,,"++ (++ is 25,000−75,000)",,,,,"+ (+ is <25,000)",
CC(C)c1ccccc1OCCNS(=O)(=O)c1ccc2ccccc2c1 [Compound 7],"+ (+ is <25,000)",,,"++ (++ is 25,000−75,000)",,,,,"++ (++ is 25,000−75,000)","++ (++ is 25,000−75,000)"
O=S(=O)(NCCOc1ccccc1)c1ccc2ccccc2c1 [Compound 8],"++ (++ is 25,000−75,000)",,,"+ (+ is <25,000)",,,,,"+ (+ is <25,000)",
